# Where two headings read alike, the source gives them in different places.
# Key:
# Assay type in all cases: cell-based
# A. baumannii ATCC 19606 = test: MIC (broth microdilution or agar dilution, CLSI)
# Procedure, shortened: (§1)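 Isolates other than streptococci and anaerobes, which had their own procedures, were grown overnight at 35° C on tryptic soy agar with 5% sheep blood. Suspensions were then diluted to a final inoculum of 5×10^5 CFU/mL in broth microdilution wells.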
# E. faecalis VRE = test: MIC (CLSI), third E. faecalis VRE line of Table 4; settings: Enterococcus faecalis; E. faecalis VRE (Table 4, third VRE line); read-out: MIC
# Method: Minimum inhibitory concentrations (MICs) were determined by broth microdilution method or agar dilution method following the Clinical and Laboratory Standards Institute guidelines. Standard bacterial strains were obtained from American Type Culture Collection (ATCC). Other bacterial strains were obtained from hospitals and commercial sources, so noted in Table 11. Before the start of the MIC experiment, standard and test compound stock solutions were prepared in dimethyl sulfoxide (DMSO, Aldrich D2650) at a stock concentration of 5,120 μg/mL. The compound concentration range typically employed for each experiment was 128-0.06 μg/mL (2.5% final DMSO concentration). Clindamycin was used as a comparator in all experiments and each experiment was performed in triplicate. Specialized procedures were employed for streptococcal and anaerobic strains. All other bacterial strains were sub-cultured on blood agar plates (tryptic soy agar with 5% sheep blood, Hardy Diagnostics) and incubated overnight at 35° C. Organisms were suspended in cation-adjusted Mueller-Hinton broth (CaMHB, BD 212322) and optical density was adjusted to 0.5 McFarland standard. Suspensions were further diluted to obtain a final inoculum of 5×10^5 CFU/mL for broth microdilution experiments.
# C. difficile ATCC 700057 = test: MIC (broth microdilution or agar dilution, CLSI)
# Procedure, shortened: (§2)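 Triplicate CLSI determinations by broth or agar dilution, compound at 128-0.06 μg/mL in 2.5% DMSO; special handling for anaerobes. Broth microdilution used 5×10^5 CFU/mL inocula in cation-adjusted Mueller-Hinton broth.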
# P. aeruginosa ATCC 27853 = test: MIC (broth microdilution or agar dilution, CLSI)
# Procedure, shortened: as §2
# E. faecium Clinical VRE = test: MIC (broth microdilution or agar dilution, CLSI); settings: Enterococcus faecium; E. faecium Clinical VRE; read-out: MIC
# Procedure, shortened: as §2
# C. scindens ATCC 35704 = test: MIC (broth microdilution or agar dilution, CLSI)
# Procedure, shortened: as §2
# S. aureus MRSA = test: MIC (broth microdilution or agar dilution, CLSI); settings: Staphylococcus aureus
# Procedure, shortened: as §2
# E. faecium VRE = test: MIC (broth microdilution or agar dilution, CLSI); settings: Enterococcus faecium; E. faecium VRE; read-out: MIC
# Procedure, shortened: as §2
# [1] = test system: E. coli MP-74 LptD mutant; test: MIC (broth microdilution or agar dilution, CLSI); settings: Escherichia coli
# Procedure, shortened: as §2
# P. aeruginosa ΔAmex OprM = test: MIC (broth microdilution or agar dilution, CLSI)
# Procedure, shortened: as §2
# S. aureus cErmA = test: MIC (broth microdilution or agar dilution, CLSI); settings: Staphylococcus aureus; S. aureus cErmA; read-out: MIC
# Procedure, shortened: as §2
# E. faecium Line R & VRE = test: MIC (broth microdilution or agar dilution, CLSI); settings: Enterococcus faecium, read-out: MIC
# Procedure, shortened: as §2
# B. fragilis ATCC 25285 = test: MIC (broth microdilution or agar dilution, CLSI); settings: Bacteroides fragilis, read-out: MIC
# Procedure, shortened: as §2
# [2] = test system: broad panel of different clinical isolates; test: microbe, parasite or virus in culture
# Procedure, shortened: as §1
compound,measurement,setting,value
CSC1O[C@H]([C@H](NC(=O)[C@H]2NC[C@@H]3C[C@H](CC(C)C)CCO[C@H]32)[C@H](C)Cl)C(O)[C@@H](O)[C@H]1O (some centres unmarked) [FSA-513018b],MIC,"A. baumannii ATCC 19606; A. baumanii HAV#010, ATCC 19606",4 µg/mL
same,MIC,"A. baumannii ATCC 19606; Acinetobacter baumannii, ATCC19606, A. baumannii ATCC 19606, read-out: MIC",4 µg/mL
same,MIC,E. faecalis VRE,1 µg/mL
same,MIC,"C. difficile ATCC 700057; C. difficile HAV#011, ATCC 700057",0.25 µg/mL
same,MIC,"C. difficile ATCC 700057; Clostridioides difficile, ATCC700057, C. difficile ATCC 700057, read-out: MIC",0.25 µg/mL
same,MIC,"P. aeruginosa ATCC 27853; P. aeruginosa HAV#009, ATCC 27853",128 µg/mL
same,MIC,"P. aeruginosa ATCC 27853; Pseudomonas aeruginosa, ATCC27853, P. aeruginosa ATCC 27853, read-out: MIC",128 µg/mL
same,MIC,E. faecium Clinical VRE,1 µg/mL
same,MIC,"C. scindens ATCC 35704; C. scindens HAV#012, ATCC 35704",0.125 µg/mL
same,MIC,"C. scindens ATCC 35704; [Clostridium] scindens, ATCC35704, C. scindens ATCC 35704, read-out: MIC",0.125 µg/mL
same,MIC,S. aureus MRSA,0.06 µg/mL
same,MIC,E. faecium VRE,1 µg/mL
same,MIC,[1],1 µg/mL
same,MIC,"P. aeruginosa ΔAmex OprM; P. aeruginosa HAV#039, ΔAmex OprM",4 µg/mL
same,MIC,P. aeruginosa ΔAmex OprM; Pseudomonas aeruginosa,4 µg/mL
same,MIC,S. aureus cErmA,4 µg/mL
same,MIC,"E. faecium Line R & VRE; E. faecium HAV#319, Line R & Vanco R",≤ 0.06 µg/mL
same,MIC,E. faecium Line R & VRE; E. faecium Line R & VRE,0.06 µg/mL
same,MIC,"B. fragilis ATCC 25285; ATCC25285, B. fragilis ATCC 25285",0.5 µg/mL
same,MIC,"B. fragilis ATCC 25285; ATCC25285, B. fragilis HAV#013, ATCC 25285",0.5 µg/mL
same,MIC,"[2]; Acinetobacter baumannii, A. baumannii HAV#651, Clinical",4 µg/mL
same,MIC,"[2]; Acinetobacter baumannii, A. baumannii HAV#652 Clinical",8 µg/mL
same,MIC,"[2]; Acinetobacter baumannii, A. baumannii HAV#653, Clinical",4 µg/mL
same,MIC,"[2]; Acinetobacter baumannii, A. baumannii HAV#654, Clinical",8 µg/mL
same,MIC,"[2]; Acinetobacter baumannii, A. baumannii HAV#655, Clinical",8 µg/mL
same,MIC,"[2]; Acinetobacter baumannii, A. baumannii HAV#656, Clinical",16 µg/mL
same,MIC,"[2]; Acinetobacter baumannii, A. baumannii HAV#657, Clinical",4 µg/mL
same,MIC,"[2]; Acinetobacter baumannii, A. baumannii HAV#658, Clinical",4 µg/mL
same,MIC,"[2]; Acinetobacter baumannii, A. baumannii HAV#659, Clinical",8 µg/mL
same,MIC,"[2]; Acinetobacter baumannii, A. baumannii HAV#660, Clinical",16 µg/mL
same,MIC,"[2]; Acinetobacter baumannii, A. baumannii HAV#661, Clinical",8 µg/mL
same,MIC,"[2]; Acinetobacter baumannii, A. baumannii HAV#662, Clinical",8 µg/mL
same,MIC,"[2]; Acinetobacter baumannii, A. baumannii HAV#663, Clinical",4 µg/mL
same,MIC,"[2]; Acinetobacter baumannii, A. baumannii HAV#664, Carbapenem R",16 µg/mL
same,MIC,"[2]; Enterococcus faecalis, E. faecalis HAV#602, Clincal",≤ 0.06 µg/mL
same,MIC,"[2]; Enterococcus faecalis, E. faecalis HAV#607, Clinical",2 µg/mL
same,MIC,"[2]; Enterococcus faecalis, E. faecalis HAV#609, Clinical",2 µg/mL
same,MIC,"[2]; Enterococcus faecalis, E. faecalis HAV#611, Line R & Vanco R",0.125 µg/mL
same,MIC,"[2]; Enterococcus faecalis, E. faecalis HAV#612, Line R",≤ 0.06 µg/mL
same,MIC,"[2]; Enterococcus faecalis, S. faecalis 5060, Line R & Vanco R",0.125 µg/mL
same,MIC,"[2]; Enterococcus faecalis, S. faecalis 5074, Line R",≤ 0.06 µg/mL
same,MIC,"[2]; Enterococcus faecium, E. faecium HAV#317, Clinical",0.25 µg/mL
same,MIC,"[2]; Enterococcus faecium, E. faecium HAV#324, Clinical",1 µg/mL
same,MIC,"[2]; Enterococcus faecium, E. faecium HAV#327, Clinical",0.06 µg/mL
same,MIC,"[2]; Enterococcus faecium, E. faecium HAV#328, Clinical",1 µg/mL
same,MIC,"[2]; Enterococcus faecium, E. faecium HAV#329, Clinical",1 µg/mL
same,MIC,"[2]; Enterococcus faecium, E. faecium HAV#604, Clinical",0.06 µg/mL
